# Reference: patent US4988814A, “Tertiary alkyl functionalized piperazine derivatives” (American Home Products Corp., priority 1989, dated 1991)
# Tests used:
# [1] = biological target: T1, 5-HT1A serotonin receptor (Rattus norvegicus, UniProt P19327); test: 5-HT1A receptor binding, displacement of [^3 H] 8-OH DPAT (Hall et al.); conditions: for inhibition at 0.1 µM / inhibition at 1 µM: read-out: Affinity for 5HT1A Receptor % Inhibition; for IC50: read-out: Affinity for 5HT1A Receptor IC50
# T1 construct: 44: 1685-1696, 1985; from tissue
# T1 sequence (P19327 1-422): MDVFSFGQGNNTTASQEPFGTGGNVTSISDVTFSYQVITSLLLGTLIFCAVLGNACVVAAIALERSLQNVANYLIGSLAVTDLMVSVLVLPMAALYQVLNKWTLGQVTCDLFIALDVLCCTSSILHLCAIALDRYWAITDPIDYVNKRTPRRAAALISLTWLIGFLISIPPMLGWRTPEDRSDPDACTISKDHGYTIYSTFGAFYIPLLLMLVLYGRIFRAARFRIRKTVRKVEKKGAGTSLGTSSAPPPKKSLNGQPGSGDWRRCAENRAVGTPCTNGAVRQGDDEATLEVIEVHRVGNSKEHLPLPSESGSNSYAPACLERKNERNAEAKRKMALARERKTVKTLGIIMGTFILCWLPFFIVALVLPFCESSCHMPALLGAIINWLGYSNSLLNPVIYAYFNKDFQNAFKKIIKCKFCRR
# Source text: 8-OH DPAT (dipropylaminotetralin) from the 5-HT1A serotonin receptor by the procedure of Hall et al., J. Neurochem.
# D2 dopamine receptor = biological target: T2, D2 dopamine receptor (Rattus norvegicus, UniProt P61169); test: D2 dopamine receptor binding, limbic brain tissue incubated with ^3 H-spiroperiodol; conditions: for inhibition at 1 µM: read-out: Affinity for D2 Receptor % Inhibition
# T2 construct: from tissue; host or cells: homogenized limbic brain tissue
# T2 sequence (P61169 whole entry): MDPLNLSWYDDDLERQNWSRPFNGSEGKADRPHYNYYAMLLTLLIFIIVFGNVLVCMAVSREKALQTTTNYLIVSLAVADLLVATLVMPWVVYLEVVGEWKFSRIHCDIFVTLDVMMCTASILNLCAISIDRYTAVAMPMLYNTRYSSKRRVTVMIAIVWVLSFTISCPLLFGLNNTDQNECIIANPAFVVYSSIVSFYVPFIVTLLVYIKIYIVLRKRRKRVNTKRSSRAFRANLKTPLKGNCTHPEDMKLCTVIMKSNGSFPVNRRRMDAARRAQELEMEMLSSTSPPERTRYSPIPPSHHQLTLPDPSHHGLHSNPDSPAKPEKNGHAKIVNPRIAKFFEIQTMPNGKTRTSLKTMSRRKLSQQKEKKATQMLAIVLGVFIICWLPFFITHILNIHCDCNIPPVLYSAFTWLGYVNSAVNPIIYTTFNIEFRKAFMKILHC
# Experimental: The D2 dopamine receptor binding study was in accordance with a modification of the procedure of Field et al., Brain Res., 136, pp. 578-584 (1977) and Yamamura et al., eds., Neurotransmitter Receptor Binding, Raven Press, N.Y. (1978), wherein homogenized limbic brain tissue is incubated with ^3 H-spiroperiodol and various concentrations of test compounds, filtered and washed and shaken with Hydrofluoro scintillation cocktail (National Diagnostics) and counted in a Packard 460CD scintillation counter.
# 5-HT1A receptor = conditions: prior art; cited from earlier work
# D2 receptor = conditions: prior art; cited from earlier work
SMILES,inhibition at 0.1 µM [1],inhibition at 1 µM [1],other results
"COc1ccccc1N1CCN(C[C@@H](C)NC(=O)C2(C)CCCCC2)CC1 [Example 20, (R)-N-[2-[4-(2-Methoxyphenyl)-1-piperazinyl]-1-methylethyl]-1-methylcyclohexane carboxamide]",100%,–,–
"COc1ccccc1N1CCN(CC(C(=O)OC(C)(C)C)c2ccccc2)CC1 (centres unmarked) [Example 12, Tertiary-butyl 3-[1-[4-(2-methoxyphenyl)piperazinyl]]-2-phenylpropanoate]",86%,98%,IC50 [1]: 11.8 nM
"COc1ccccc1N1CCN(CC(OC(=O)C(C)(C)C)c2ccccc2)CC1 (centres unmarked) [Example 23, 2,2-Dimethylpropanoic acid 2-(4-(2-methoxyphenyl)-piperazin-1-yl)-1-phenylethyl ester]",27%,78%,IC50 [1]: 270 nM
"COc1ccccc1N1CCN(CCCCNC(=O)NC(C)(C)C)CC1 [Example 1, N-(1,1-Dimethylethyl)-N^1-[4-[4-(2-methoxyphenyl)-1-piperazinyl]butyl]urea]",91%,–,–
"CC1(C(=O)NCCN2CCN(c3ncccn3)CC2)CCCCC1 [Example 19, N-2-(4-(2-Pyrimidinyl)-1-piperazinyl)ethyl-1-methylcyclohexylcarboxamide]",67%,–,–
"CC(C)(C)C(=O)OCCCN1CCN(c2ccccc2Cl)CC1 [Example 5, 2,2-Dimethylpropanoic acid 3-[4-(2-chlorophenyl)-1-piperazinyl]propyl ester]",–,98%,inhibition at 1 µM (D2 dopamine receptor): 58%
COc1ccccc1N1CCN(CC(OC(=O)NC(C)(C)C)c2ccccc2)CC1 (centres unmarked) [Example 24],73%,97%,IC50 [1]: 20 nM
"O=C1CC2(CCCC2)CC(=O)N1CCCCN1CCN(c2ncccn2)CC1 [buspirone, reference compound]",–,–,5-HT1A receptor affinity/activity (in words) (5-HT1A receptor): selective activity; 5-HT1A receptor affinity/binding (in words) [1]: potent affinity
"COc1ccccc1N1CCN(CCCOC(=O)C(C)(C)C)CC1 [Example 4, 2,2-Dimethylpropanoic acid 3-[4-(2-methoxyphenyl)-1-piperazinyl]propyl ester]",–,98%,inhibition at 1 µM (D2 dopamine receptor): 99%
CCCCN1C(=O)C2C(=O)N(CCCCN3CCN(c4ccccc4OC)CC3)C(=O)C(C1=O)C2(C)C [umespirone],–,–,D2 receptor affinity (in words) (D2 receptor): high affinity; 5-HT1A receptor affinity/activity (in words) (5-HT1A receptor): high affinity
"COc1ccccc1N1CCN(CCNC(=O)C2(C)CCCCC2)CC1 [Example 15, N-[2-[4-(2-Methoxyphenyl)-1-piperazinyl)ethyl]-1-methylcyclohexanecarboxamide]",98%,–,–
"COc1ccccc1N1CCN(CC(C(=O)NC(C)(C)C)c2ccccc2)CC1 (centres unmarked) [Example 13, N-Tertiary-butyl 3-[4-(2-methoxyphenyl)piperazinyl]-2-phenylpropanamide]",–,–,IC50 (D2 dopamine receptor; read-out: Affinity for D2 Receptor IC50): 1740 nM
"COc1ccccc1N1CCN(CCNC(=O)NC2(C)CCCCC2)CC1 [Example 18, N-[2-[4-(2-Methoxyphenyl)-1-piperazinyl]ethyl]-N'-(1-methylcyclohexyl)urea]",85%,–,–
"COc1ccccc1N1CCN(CC(C(=O)NNC(C)(C)C)c2ccccc2)CC1 (centres unmarked) [Example 26, N-Tert-butyl-3-[1-[4-(2-methoxy)phenyl]piperazinyl]-2-phenyl-propionhydrazide]",48%,96%,IC50 [1]: 118 nM
"COc1ccccc1N1CCN(CCCCNC(=O)C(C)(C)C)CC1 [Example 2, N-[4-[4-(2-Methoxyphenyl)-1-piperazinyl]butyl]-2,2-dimethylpropanamide]",100%,–,–
"COc1ccccc1N1CCN(CCOC(=O)C(C)(C)C)CC1 [Example 3, 2,2-Dimethylpropanoic acid 2-[4-(2-methoxyphenyl)-1-piperazinyl]ethyl ester]",–,86%,inhibition at 1 µM (D2 dopamine receptor): 89%
